Data on 2 molecules can be found in paper doi:10.1101/211839v1 (biorxiv, 2017).

Assay [1] deals with T1, HDAC11 (untagged) (Homo sapiens, UniProt Q96DB2).
T1 sequence (Q96DB2 1-347): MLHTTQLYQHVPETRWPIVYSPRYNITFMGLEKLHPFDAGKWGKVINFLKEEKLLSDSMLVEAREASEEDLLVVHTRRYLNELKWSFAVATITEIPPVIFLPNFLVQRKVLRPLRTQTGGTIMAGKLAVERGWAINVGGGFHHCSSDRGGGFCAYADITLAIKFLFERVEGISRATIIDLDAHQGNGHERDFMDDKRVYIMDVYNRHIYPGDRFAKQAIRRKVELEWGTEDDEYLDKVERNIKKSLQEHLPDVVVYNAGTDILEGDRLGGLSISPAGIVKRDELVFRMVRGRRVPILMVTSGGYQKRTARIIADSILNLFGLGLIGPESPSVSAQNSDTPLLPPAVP
The assay is described as follows: end-point fluorescence demyristoylase assay, trypsin release of AMC. In kind it is biochemical.

The target in assay [2] is T1, HDAC11 (untagged). Briefly: continuous fluorescence assay, trypsin-coupled, initial rates. In kind it is biochemical. The note with it: […] enzyme, HEPES pH […], no BSA, […] °C.

A value given as a limit tells only on which side of the number the result lay.

By IC50 is commonly meant the concentration that gives 50% inhibition. At HDAC11 (untagged) [1], `C/C=C1\NC(=O)[C@H]2CSSCC/C=C/[C@H](CC(=O)N[C@H](C(C)C)C(=O)N2)OC(=O)[C@H](C(C)C)NC1=O` [romidepsin] returned an IC50 of more than 100 µM.
For orientation: Km means the substrate concentration at which the rate is half of its maximum. For Ac-ETDKmyr-AMC [6e], the Michaelis constant (Km) at HDAC11 (untagged) [2] came to 60 µM.
